The term IC50 denotes the concentration that gives 50% inhibition.

The values below come from ChEMBL document CHEMBL4184123, “Discovery of novel 2-substituted-4-phenoxypyridine derivatives as potential antitumor agents” (Bioorg Med Chem Lett, 2018).

The test system of test [1] is A549. Put plainly: cells. The following applies: Homo sapiens, A549, 72 h.
Description: Antiproliferative activity against human A549 cells after 72 hrs by MTT assay
The subject of test [2] is HT-29. Put plainly: cells. The following applies: Homo sapiens, HT-29, 72 h.
The test system of test [3] is NCI-H460. Put plainly: Antiproliferative activity against human H460 cells after 72 hrs by MTT assay. In kind it is functional, cell-based. The following applies: NCI-H460, 72 h.
Test [4] deals with U-87 MG. The experiment in a line: Antiproliferative activity against human U87MG cells after 72 hrs by MTT assay. Type of test: functional, cell-based, U-87MG ATCC. (Tetrazolium assays rely on reduction of a dye to a coloured formazan, in cell work by metabolically active cells.)
For test [5], the target named is Hepatocyte growth factor receptor (Homo sapiens, UniProt P08581). Put plainly: Inhibition of c-MET (unknown origin) using poly (Glu, Tyr) 4:1 as substrate after 30 mins in presence of ATP by HTRF assay. A general note: Time-resolved FRET reads energy transfer from a long-lived donor to a nearby acceptor.
Test [6] deals with T1, Receptor-type tyrosine-protein kinase FLT3 (Homo sapiens, UniProt P36888).
T1 sequence (P36888 whole entry): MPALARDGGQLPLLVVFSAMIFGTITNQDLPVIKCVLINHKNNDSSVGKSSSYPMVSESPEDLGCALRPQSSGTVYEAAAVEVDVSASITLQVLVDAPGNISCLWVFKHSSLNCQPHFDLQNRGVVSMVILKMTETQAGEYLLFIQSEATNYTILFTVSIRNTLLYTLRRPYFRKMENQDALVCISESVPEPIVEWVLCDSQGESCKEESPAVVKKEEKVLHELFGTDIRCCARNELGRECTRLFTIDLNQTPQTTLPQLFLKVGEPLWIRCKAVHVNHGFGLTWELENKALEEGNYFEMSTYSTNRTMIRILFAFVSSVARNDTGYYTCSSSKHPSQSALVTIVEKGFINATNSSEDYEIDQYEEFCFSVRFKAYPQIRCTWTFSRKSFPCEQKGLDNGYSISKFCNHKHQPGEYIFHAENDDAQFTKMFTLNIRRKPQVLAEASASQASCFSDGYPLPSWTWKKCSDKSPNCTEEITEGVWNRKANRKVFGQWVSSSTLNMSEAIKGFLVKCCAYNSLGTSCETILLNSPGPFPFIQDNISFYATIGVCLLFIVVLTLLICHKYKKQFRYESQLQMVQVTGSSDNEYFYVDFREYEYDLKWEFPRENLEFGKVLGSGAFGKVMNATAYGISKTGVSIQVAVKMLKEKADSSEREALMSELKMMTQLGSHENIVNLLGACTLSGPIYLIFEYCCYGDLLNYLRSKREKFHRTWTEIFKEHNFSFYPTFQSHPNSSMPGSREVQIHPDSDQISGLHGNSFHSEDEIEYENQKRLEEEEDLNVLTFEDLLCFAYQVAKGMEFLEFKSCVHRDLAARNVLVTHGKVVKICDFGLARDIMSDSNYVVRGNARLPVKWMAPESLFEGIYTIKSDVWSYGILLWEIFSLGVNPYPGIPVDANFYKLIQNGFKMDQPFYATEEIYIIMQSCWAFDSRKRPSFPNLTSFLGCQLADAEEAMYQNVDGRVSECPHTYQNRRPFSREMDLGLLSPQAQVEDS
The experiment in a line: Inhibition of FLT3 (unknown origin) using poly (Glu, Tyr) 4:1 as substrate after 30 mins in presence of ATP by HTRF assay.

Test [7] addresses Vascular endothelial growth factor receptor 3 (Homo sapiens, UniProt P35916). The experiment in a line: Inhibition of VEGFR3 (unknown origin) using poly (Glu, Tyr) 4:1 as substrate after 30 mins in presence of ATP by HTRF assay.
The target of test [8] is ALK tyrosine kinase receptor (Homo sapiens, UniProt Q9UM73). The experiment in a line: Inhibition of ALK (unknown origin) using poly (Glu, Tyr) 4:1 as substrate after 30 mins in presence of ATP by HTRF assay.
The target of test [9] is Vascular endothelial growth factor receptor 2 (Homo sapiens, UniProt P35968). The experiment in a line: Inhibition of VEGFR2 (unknown origin) using poly (Glu, Tyr) 4:1 as substrate after 30 mins in presence of ATP by HTRF assay.
Test [10] deals with Platelet-derived growth factor receptor beta (Homo sapiens, UniProt P09619). The experiment in a line: Inhibition of PDGFRbeta (unknown origin) using poly (Glu, Tyr) 4:1 as substrate after 30 mins in presence of ATP by HTRF assay.
In test [11] the target is Mast/stem cell growth factor receptor Kit (Homo sapiens, UniProt P10721). Put plainly: Inhibition of c-KIT (unknown origin) using poly (Glu, Tyr) 4:1 as substrate after 30 mins in presence of ATP by HTRF assay.
In test [12] the target is Platelet-derived growth factor receptor alpha (Homo sapiens, UniProt P16234). Put plainly: Inhibition of PDGFRalpha (unknown origin) using poly (Glu, Tyr) 4:1 as substrate after 30 mins in presence of ATP by HTRF assay.
Test [13] concerns the target Epidermal growth factor receptor (Homo sapiens, UniProt P00533). Put plainly: Inhibition of EGFR (unknown origin) using poly (Glu, Tyr) 4:1 as substrate after 30 mins in presence of ATP by HTRF assay.

Mast/stem cell growth factor receptor Kit, sequence (P10721 whole entry): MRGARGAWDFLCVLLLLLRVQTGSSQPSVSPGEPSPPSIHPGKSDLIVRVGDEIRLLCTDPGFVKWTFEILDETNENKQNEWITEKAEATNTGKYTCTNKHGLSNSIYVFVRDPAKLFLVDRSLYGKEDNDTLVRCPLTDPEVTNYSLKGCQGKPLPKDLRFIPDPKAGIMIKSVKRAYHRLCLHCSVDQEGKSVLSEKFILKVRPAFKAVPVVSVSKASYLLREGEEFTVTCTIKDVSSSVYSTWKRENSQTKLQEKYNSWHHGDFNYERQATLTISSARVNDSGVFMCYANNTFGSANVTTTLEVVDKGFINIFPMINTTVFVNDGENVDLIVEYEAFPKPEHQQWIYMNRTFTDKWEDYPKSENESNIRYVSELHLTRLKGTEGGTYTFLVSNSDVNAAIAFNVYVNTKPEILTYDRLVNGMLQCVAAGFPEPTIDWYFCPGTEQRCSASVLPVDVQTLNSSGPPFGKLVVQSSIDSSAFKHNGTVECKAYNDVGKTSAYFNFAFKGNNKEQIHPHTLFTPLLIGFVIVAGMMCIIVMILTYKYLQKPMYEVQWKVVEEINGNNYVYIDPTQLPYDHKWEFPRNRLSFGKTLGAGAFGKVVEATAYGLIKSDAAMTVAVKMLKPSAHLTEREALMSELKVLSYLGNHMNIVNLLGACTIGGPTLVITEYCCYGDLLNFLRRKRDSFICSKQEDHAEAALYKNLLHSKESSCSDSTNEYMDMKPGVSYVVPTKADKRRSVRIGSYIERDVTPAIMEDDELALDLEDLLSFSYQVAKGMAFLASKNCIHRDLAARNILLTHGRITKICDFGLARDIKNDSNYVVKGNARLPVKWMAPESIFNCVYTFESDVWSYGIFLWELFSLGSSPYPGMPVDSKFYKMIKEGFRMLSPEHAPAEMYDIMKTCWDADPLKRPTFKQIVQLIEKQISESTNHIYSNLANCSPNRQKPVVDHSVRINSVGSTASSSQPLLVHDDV
Vascular endothelial growth factor receptor 3, sequence (P35916 whole entry): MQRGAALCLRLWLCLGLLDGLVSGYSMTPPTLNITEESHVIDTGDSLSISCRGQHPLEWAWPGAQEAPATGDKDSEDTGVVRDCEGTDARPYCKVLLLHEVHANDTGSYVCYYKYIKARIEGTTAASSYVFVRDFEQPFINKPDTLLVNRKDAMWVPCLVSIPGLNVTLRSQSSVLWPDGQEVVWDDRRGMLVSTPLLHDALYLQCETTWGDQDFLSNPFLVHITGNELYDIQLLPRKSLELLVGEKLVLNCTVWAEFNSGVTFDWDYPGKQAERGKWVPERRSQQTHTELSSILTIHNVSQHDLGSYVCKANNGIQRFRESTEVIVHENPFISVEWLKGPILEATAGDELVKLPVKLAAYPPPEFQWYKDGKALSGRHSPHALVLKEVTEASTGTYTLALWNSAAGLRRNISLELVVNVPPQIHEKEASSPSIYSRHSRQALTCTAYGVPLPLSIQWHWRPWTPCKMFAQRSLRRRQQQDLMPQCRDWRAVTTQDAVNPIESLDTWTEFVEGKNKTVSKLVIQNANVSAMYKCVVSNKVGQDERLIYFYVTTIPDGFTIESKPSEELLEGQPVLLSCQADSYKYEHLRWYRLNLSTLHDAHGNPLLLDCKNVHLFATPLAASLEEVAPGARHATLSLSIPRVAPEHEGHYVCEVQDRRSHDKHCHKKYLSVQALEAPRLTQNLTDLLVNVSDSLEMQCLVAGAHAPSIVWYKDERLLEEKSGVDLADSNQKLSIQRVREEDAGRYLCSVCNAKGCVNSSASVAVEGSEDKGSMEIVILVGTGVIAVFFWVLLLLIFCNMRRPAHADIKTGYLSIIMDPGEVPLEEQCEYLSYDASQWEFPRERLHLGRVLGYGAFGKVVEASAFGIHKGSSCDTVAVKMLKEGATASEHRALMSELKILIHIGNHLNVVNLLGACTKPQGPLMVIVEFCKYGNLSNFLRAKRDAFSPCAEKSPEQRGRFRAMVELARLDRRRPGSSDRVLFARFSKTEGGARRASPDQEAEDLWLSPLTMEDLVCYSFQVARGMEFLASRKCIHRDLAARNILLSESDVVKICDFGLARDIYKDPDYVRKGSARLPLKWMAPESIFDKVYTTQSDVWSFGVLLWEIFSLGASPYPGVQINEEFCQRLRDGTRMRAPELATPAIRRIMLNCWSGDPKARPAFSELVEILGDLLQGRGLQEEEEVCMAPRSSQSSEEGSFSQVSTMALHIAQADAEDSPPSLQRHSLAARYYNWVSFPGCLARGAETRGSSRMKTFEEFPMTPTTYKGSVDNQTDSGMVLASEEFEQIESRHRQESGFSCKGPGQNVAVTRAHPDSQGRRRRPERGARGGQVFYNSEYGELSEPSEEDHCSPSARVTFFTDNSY
Vascular endothelial growth factor receptor 2, sequence (P35968 whole entry): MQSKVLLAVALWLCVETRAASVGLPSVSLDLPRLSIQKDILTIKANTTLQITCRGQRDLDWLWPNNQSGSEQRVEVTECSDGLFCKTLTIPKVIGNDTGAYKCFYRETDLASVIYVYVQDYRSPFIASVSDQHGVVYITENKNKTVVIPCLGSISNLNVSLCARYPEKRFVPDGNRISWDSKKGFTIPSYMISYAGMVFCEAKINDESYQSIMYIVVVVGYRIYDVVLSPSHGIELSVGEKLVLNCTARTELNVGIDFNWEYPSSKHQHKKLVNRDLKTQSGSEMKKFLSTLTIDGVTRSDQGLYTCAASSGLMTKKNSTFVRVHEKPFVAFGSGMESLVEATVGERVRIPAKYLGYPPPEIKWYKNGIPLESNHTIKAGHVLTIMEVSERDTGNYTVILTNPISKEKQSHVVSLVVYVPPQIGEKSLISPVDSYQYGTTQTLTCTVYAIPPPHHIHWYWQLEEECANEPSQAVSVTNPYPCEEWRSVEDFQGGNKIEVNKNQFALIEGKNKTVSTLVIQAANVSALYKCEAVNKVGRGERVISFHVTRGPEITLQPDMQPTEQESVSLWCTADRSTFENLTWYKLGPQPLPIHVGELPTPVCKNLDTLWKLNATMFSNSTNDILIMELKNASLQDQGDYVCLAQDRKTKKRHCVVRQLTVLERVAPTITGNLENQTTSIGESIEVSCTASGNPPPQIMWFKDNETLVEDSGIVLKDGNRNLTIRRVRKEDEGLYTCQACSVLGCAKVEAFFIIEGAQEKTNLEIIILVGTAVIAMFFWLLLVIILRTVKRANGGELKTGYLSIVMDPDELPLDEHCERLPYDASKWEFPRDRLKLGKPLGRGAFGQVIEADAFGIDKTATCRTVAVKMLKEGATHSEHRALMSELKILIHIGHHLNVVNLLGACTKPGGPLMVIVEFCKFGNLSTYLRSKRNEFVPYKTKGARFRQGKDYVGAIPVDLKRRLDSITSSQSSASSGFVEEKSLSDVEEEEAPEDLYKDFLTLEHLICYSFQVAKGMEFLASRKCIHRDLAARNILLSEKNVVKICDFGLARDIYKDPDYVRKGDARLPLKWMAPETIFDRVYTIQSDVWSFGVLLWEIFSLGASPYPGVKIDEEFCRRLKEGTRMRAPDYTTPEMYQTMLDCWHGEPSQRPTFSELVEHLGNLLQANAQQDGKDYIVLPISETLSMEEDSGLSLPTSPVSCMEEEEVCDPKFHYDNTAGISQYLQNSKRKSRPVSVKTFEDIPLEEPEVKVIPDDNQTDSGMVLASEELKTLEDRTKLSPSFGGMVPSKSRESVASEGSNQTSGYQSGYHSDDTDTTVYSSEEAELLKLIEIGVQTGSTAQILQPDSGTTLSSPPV
Platelet-derived growth factor receptor beta, sequence (P09619 whole entry): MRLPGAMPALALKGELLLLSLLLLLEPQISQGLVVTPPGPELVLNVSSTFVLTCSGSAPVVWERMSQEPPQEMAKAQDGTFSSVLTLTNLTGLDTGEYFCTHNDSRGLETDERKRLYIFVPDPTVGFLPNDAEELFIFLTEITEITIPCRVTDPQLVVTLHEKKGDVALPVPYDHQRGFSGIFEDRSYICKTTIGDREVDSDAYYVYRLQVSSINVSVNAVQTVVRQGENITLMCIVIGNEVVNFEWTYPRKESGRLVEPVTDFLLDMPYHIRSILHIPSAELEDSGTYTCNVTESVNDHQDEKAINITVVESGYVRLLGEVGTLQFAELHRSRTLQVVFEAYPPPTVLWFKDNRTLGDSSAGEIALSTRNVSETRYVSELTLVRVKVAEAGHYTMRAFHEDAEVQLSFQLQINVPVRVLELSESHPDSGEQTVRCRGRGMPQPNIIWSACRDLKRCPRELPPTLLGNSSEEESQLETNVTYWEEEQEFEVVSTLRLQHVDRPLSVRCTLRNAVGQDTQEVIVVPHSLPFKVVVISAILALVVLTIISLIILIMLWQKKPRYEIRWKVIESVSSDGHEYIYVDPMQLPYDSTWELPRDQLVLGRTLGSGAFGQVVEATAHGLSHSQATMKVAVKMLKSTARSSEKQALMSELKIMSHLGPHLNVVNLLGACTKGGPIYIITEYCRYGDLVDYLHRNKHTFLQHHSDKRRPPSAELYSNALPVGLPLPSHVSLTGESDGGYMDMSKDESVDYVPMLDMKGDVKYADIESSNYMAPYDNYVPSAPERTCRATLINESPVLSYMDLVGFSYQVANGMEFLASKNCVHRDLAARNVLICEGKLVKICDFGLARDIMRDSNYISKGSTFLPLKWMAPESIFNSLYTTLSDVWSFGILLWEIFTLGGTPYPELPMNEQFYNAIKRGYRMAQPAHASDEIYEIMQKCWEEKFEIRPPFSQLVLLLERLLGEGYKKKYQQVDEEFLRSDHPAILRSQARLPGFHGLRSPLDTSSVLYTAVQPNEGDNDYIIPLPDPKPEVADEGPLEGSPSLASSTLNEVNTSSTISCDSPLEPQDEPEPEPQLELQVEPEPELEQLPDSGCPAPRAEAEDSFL

As for `CCNC(=O)c1cc(Oc2ccc(NC(=O)c3cc4cccnc4n(-c4ccc(Cl)cc4)c3=O)cc2)ccn1`, the IC50 in test [1] amounted to 0.25 µM; in test [2] it was 0.33 µM.

Consider `CNC(=O)c1cc(Oc2ccc(NC(=O)c3cc4cccnc4n(-c4ccc(F)c(Cl)c4)c3=O)cc2)ccn1`, for which the half-inhibitory concentration (IC50) in [1] is 1.56 µM; in [2], 1.81 µM.

For the compound `CNC(=O)c1cc(Oc2ccc(NC(=O)c3cc4cccnc4n(-c4ccccc4F)c3=O)cc2)ccn1`, the IC50 in [3] came out at 0.59 µM; in test [4] it was 3.36 µM; in [1], 0.61 µM; in [2], 0.26 µM.

Turning to `CNC(=O)c1cc(Oc2ccc(NC(=O)c3cc4cccnc4n(-c4ccc(OC)cc4)c3=O)cc2)ccn1`, the IC50 in test [1] turned out to be 3.11 µM; in test [2], 0.92 µM.

In the case of `CCCNC(=O)c1cc(Oc2ccc(NC(=O)c3cc4cccnc4n(-c4ccc(F)cc4)c3=O)cc2)ccn1`, the IC50 in test [3] was found to be 0.12 µM; in test [4] it was 0.96 µM; in test [5], 0.00261 µM; in [6], 0.00218 µM; in test [7] it was 0.0236 µM; in [8], 0.186 µM. Besides, the IC50 was 0.291 µM in test [9]; 0.482 µM in test [10]; 0.529 µM in test [11]; 0.691 µM in test [12]; greater than 100 µM in test [13]; 0.062 µM in test [1]. In test [2], this compound gave an IC50 of 0.084 µM.

In the case of `CNC(=O)c1cc(Oc2ccc(NC(=O)c3cc4cccnc4n(-c4ccc(C(F)(F)F)cc4Cl)c3=O)cc2)ccn1`, the IC50 stood at 2.11 µM in [3], 19.8 µM in test [4], 2.09 µM in test [1] and 3.19 µM in [2].

For `CCCNC(=O)c1cc(Oc2ccc(NC(=O)c3cc4cccnc4n(-c4ccc(OC)cc4)c3=O)cc2)ccn1`, the IC50 in test [3] was 1.73 µM; in [4], 8.21 µM; in test [1], 0.82 µM; in [2], 1.56 µM.

For `CNC(=O)c1cc(Oc2ccc(NC(=O)c3cc4cccnc4n(-c4ccc(F)cc4)c3=O)cc2)ccn1`, the IC50 in [3] is 0.21 µM; in test [4], 2.91 µM; in [1], 0.11 µM; in [2], 0.16 µM.

Regarding `CCCNC(=O)c1cc(Oc2ccc(NC(=O)c3cc4cccnc4n(-c4ccc(F)c(Cl)c4)c3=O)cc2)ccn1`, the half-inhibitory concentration (IC50) was determined as 1.6 µM in [3], 3.59 µM in [4], 0.59 µM in [1] and 0.92 µM in test [2].

Regarding `CCCNC(=O)c1cc(Oc2ccc(NC(=O)c3cc4cccnc4n(-c4ccccc4)c3=O)cc2)ccn1`, the half-maximal inhibitory concentration (IC50) in test [3] was 0.11 µM; in test [4], 1.51 µM; in test [1] it was 0.095 µM; in test [2] it was 0.098 µM.

As for `CCNC(=O)c1cc(Oc2ccc(NC(=O)c3cc4cccnc4n(-c4ccc(C(F)(F)F)cc4Cl)c3=O)cc2)ccn1`, the half-inhibitory concentration (IC50) in test [1] is 3.29 µM; in test [2], 4.77 µM.

Regarding `CNC(=O)c1cc(Oc2ccc(NC(=O)c3cc4cccnc4n(-c4ccc(Br)cc4)c3=O)cc2)ccn1`, the IC50 worked out at 3.71 µM in test [3], 15 µM in test [4], 1.05 µM in [1] and 1.18 µM in [2].

Regarding `CCCNC(=O)c1cc(Oc2ccc(NC(=O)c3cc4cccnc4n(-c4ccc(Br)cc4)c3=O)cc2)ccn1`, the IC50 came out at 0.62 µM in [3], 5.19 µM in test [4], 0.15 µM in [1] and 0.53 µM in test [2].

As for `CNC(=O)c1cc(Oc2ccc(NC(=O)c3cc4cccnc4n(-c4ccc(Br)cc4F)c3=O)cc2)ccn1`, the figures for the IC50 in test [1] and in test [2] were 1.42 µM and 1.95 µM, respectively.

Turning to `CNC(=O)c1cc(Oc2ccc(NC(=O)c3cc4cccnc4n(-c4ccccc4)c3=O)cc2)ccn1`, the IC50 in test [3] was 0.32 µM; in test [4], 1.82 µM; in test [1] it was 0.2 µM; in test [2], 0.25 µM.

For the compound `CCNC(=O)c1cc(Oc2ccc(NC(=O)c3cc4cccnc4n(-c4ccccc4F)c3=O)cc2)ccn1`, the IC50 turned out to be 1.23 µM in [3], 3.25 µM in test [4], 0.49 µM in [1] and 0.26 µM in test [2].

Consider `CCNC(=O)c1cc(Oc2ccc(NC(=O)c3cc4cccnc4n(-c4ccc(Br)cc4)c3=O)cc2)ccn1`, for which the values for the IC50 in [1] and in test [2] were 0.91 µM and 1.16 µM, respectively.

Take `CCNC(=O)c1cc(Oc2ccc(NC(=O)c3cc4cccnc4n(-c4ccc(F)c(Cl)c4)c3=O)cc2)ccn1`: the IC50 in test [1] amounted to 1.92 µM; in [2] it was 2.6 µM.

On to `CNC(=O)c1cc(Oc2ccc(NC(=O)c3cc4cccnc4n(-c4ccc(Cl)cc4)c3=O)cc2)ccn1`, for which the IC50 in test [1] came to 0.37 µM; in test [2], 0.39 µM.

As to `CCNC(=O)c1cc(Oc2ccc(NC(=O)c3cc4cccnc4n(-c4ccccc4)c3=O)cc2)ccn1`, the half-maximal inhibitory concentration (IC50) in [3] amounted to 1.12 µM; in [4], 2.65 µM; in test [1] it was 0.16 µM; in [2], 0.22 µM.

For the compound `CCCNC(=O)c1cc(Oc2ccc(NC(=O)c3cc4cccnc4n(-c4ccc(C(F)(F)F)cc4Cl)c3=O)cc2)ccn1`, the half-inhibitory concentration (IC50) in test [3] was 3.17 µM; in [4] it was 10.9 µM; in test [1], 1.25 µM; in test [2], 1.96 µM.

Regarding `CCCNC(=O)c1cc(Oc2ccc(NC(=O)c3cc4cccnc4n(-c4ccccc4F)c3=O)cc2)ccn1`, the concentration for half-maximal inhibition (IC50) was found to be 0.39 µM in test [3], 2.32 µM in test [4], 0.15 µM in [1] and 0.2 µM in test [2].

`CCNC(=O)c1cc(Oc2ccc(NC(=O)c3cc4cccnc4n(-c4ccc(F)cc4)c3=O)cc2)ccn1`: the IC50 was 0.22 µM in [3], 1.13 µM in [4], 0.12 µM in test [1] and 0.19 µM in [2].

Take `CCNC(=O)c1cc(Oc2ccc(NC(=O)c3cc4cccnc4n(-c4ccc(OC)cc4)c3=O)cc2)ccn1`: the IC50 in [3] came out at 1.72 µM; in [4], 7.21 µM; in [1] it was 2.01 µM; in test [2] it was 3.35 µM.

Regarding `CCCNC(=O)c1cc(Oc2ccc(NC(=O)c3cc4cccnc4n(-c4ccc(Cl)cc4)c3=O)cc2)ccn1`, the results for the concentration for half-maximal inhibition (IC50) in test [1] and in [2] were 0.12 µM and 0.39 µM, respectively.

As for `CCNC(=O)c1cc(Oc2ccc(NC(=O)c3cc4cccnc4n(-c4ccc(Br)cc4F)c3=O)cc2)ccn1`, the IC50 in test [3] worked out at 1.79 µM; in test [4], 10.3 µM; in test [1] it was 1.82 µM; in test [2], 2.07 µM.

In the case of `CCCNC(=O)c1cc(Oc2ccc(NC(=O)c3cc4cccnc4n(-c4ccc(Br)cc4F)c3=O)cc2)ccn1`, the IC50 in test [1] is 1.31 µM; in test [2], 2.16 µM.
